Values after ≈ are worked out from the molar mass of the structure shown. Where two headings read alike, the source gives them in different places.
Assays:
[1] = clinical trials; cited from earlier work
[2] = Stability assessment of Form A (storage, XRPD); format: physicochemical; settings: two weeks
Experimental: 5 samples (10.0 mg each) of Form A obtained from example 2 was stored at 5° C., 25° C./60% RH, 40° C./75% RH, 60° C./75% RH and 80° C. for two weeks, then XRPD test was performed after one week and two weeks. The results are depicted in FIG. 6 and FIG. 7. FIG. 6 is the XRPD overlay of one-week stability, and the patterns from top to bottom are initial Form A, and Form A after storing at 25° C./60% RH, 40° C./75% RH, 60° C./75% RH, 80° C. for one week, respectively. FIG. 7 is the XRPD overlay of two-week stability, and the patterns from top to bottom are initial Form A, and Form A after storing at 25° C./60% RH, 40° C./75% RH, 60° C./75% RH and 80° C. for two weeks, respectively.

[3] = Particle size comparison experiment (laser particle size analyzer); format: physicochemical; settings: wet method, Isopar G
Experimental: Wet method was used and Isopar G was used as the dispersion medium. [table] The particle size distributions of obtained Form A (example 2), Form B (example 4), Form C (example 5), Form D (example 8) and the reference form were measured.

[4] = Solubility assessment (saturated solutions, HPLC); format: physicochemical; settings: for solubility at 1 h / solubility at 4 h: thermodynamic from solid
Experimental: The concentration of the saturated solutions was measured through HPLC after 1 hour and 4 hours.

[5] = Slurry experiment in different water activities (XRPD); format: physicochemical
Experimental: The samples were centrifuged after 48 hours, and tested by XRPD.

[6] = simulated gastric fluid, Solubility SGF

D10 [3]	D50 [3]	D90 [3]	MV (average particle size calculated by volume) [3]	Solubility Water ([4]; 1 h)	Solubility SGF ([4]; 1 h)	Solubility SGF ([4]; 4 h)	Solubility Water ([4]; 4 h)	SMILES	solubility compared with reference form [4]	also measured
								O=C(Nc1nc2cccc(-c3ccc(CN4CCS(=O)(=O)CC4)cc3)n2n1)C1CC1 [Filgotinib, N-[5-[4-[(1,1-dioxo-1-thiomorpholin-4-yl)methyl]phenyl][1,2,4]triazole[1,5-a]pyridin-2-yl] cyclopropanecarboxamide]		anemia and abnormal increase in LDL [1]: does not cause an anemia and abnormal increase in LDL
1.72 μm	8.93 μm	62.08 μm	24.64 μm	1080 µg/mL				Cl.O=C(Nc1nc2cccc(-c3ccc(CN4CCS(=O)(=O)CC4)cc3)n2n1)C1CC1 [Form A]	higher solubility than the reference form	form change (XRPD) after storage ([2]; 5° C.): no form change; form change (XRPD) after storage ([2]; 25° C./60% RH): no form change; form change (XRPD) after storage ([2]; 40° C./75% RH): no form change; form change (XRPD) after storage ([2]; 60° C./75% RH): no form change; form change (XRPD) after storage ([2]; 80° C.): no form change; solubility at 1 h [4, 6]: 1280 µg/mL; solubility at 4 h [4, 6]: 1200 µg/mL; solubility at 4 h ([4]; water, Solubility Water): 2430 µg/mL
2.53 μm	20.30 μm	110.4 μm	44.66 μm	5020 µg/mL	1450 µg/mL	960 µg/mL	3590 µg/mL	Cl.O=C(Nc1nc2cccc(-c3ccc(CN4CCS(=O)(=O)CC4)cc3)n2n1)C1CC1 [Form B]	higher solubility than the reference form	
1.87 μm	13.57 μm	66.16 μm	29.92 μm	5180 µg/mL	1930 µg/mL	1120 µg/mL	3060 µg/mL	Cl.O=C(Nc1nc2cccc(-c3ccc(CN4CCS(=O)(=O)CC4)cc3)n2n1)C1CC1 [Form C]	higher solubility than the reference form	
5.77 μm	25.92 μm	82.42 μm	41.24 μm	3000 µg/mL	2220 µg/mL	1150 µg/mL	2370 µg/mL	Cl.O=C(Nc1nc2cccc(-c3ccc(CN4CCS(=O)(=O)CC4)cc3)n2n1)C1CC1 [Form D]	higher solubility than the reference form	
2.95 μm	6.29 μm	12.35 μm	7.24 μm					O=C(Nc1nc2cccc(-c3ccc(CN4CCS(=O)(=O)CC4)cc3)n2n1)C1CC1 [Reference form, reference compound]		Final Form ([5]; H2O/ACN 1:99, water activity 0.2, slurry 48 hours): Form A; Final Form ([5]; H2O/ACN 2:98, water activity 0.4, slurry 48 hours): Form A; Final Form ([5]; H2O/EtOH 2:98, water activity 0.15, slurry 48 hours): Form A; Final Form ([5]; H2O/MeOH 7:93, water activity 0.2, slurry 48 hours): Form A; Final Form ([5]; H2O/MeOH 16:84, water activity 0.4, slurry 48 hours): Form A; stability under low water activity ([5]; low water activity): not stable; solubility at 1 h ([4]; simulated gastric fluid (SGF), simulated gastric fluid, simulated gastric fluid (SGF), 1 h, read-out: Solubility SGF): 70 µg/mL (≈ 165 µM); solubility at 4 h ([4]; simulated gastric fluid (SGF), simulated gastric fluid, simulated gastric fluid (SGF), 4 h, read-out: Solubility SGF): 920 µg/mL (≈ 2160 µM); solubility at 1 h ([4]; water, water, 1 h, read-out: Solubility Water): 810 µg/mL (≈ 1900 µM); solubility at 4 h ([4]; water, water, 4 h, read-out: Solubility Water): 3000 µg/mL (≈ 7050 µM)

Reference: patent US20190100519A1, “HYDROCHLORIDE SALT CRYSTAL OF DRUG FOR TREATING OR PREVENTING JAK-ASSOCIATED DISEASE AND PREPARATION METHOD THEREOF” (CRYSTAL PHARMATECH CO., LTD., priority 2016, published 2019)
